According to patent publication US9179674B2, “Macrocyclic picolinamide compounds with fungicidal activity” (DOW AGROSCIENCES LLC, priority 2013, dated 2015):
Like-named read-outs stand apart in the source and are kept apart here.

How the values were obtained:
[1] = tested on: Mycosphaerella graminicola; Anamorph: Septoria tritici; assay: Leaf Blotch of Wheat fungicidal activity (SEPTTR); assay type: in vivo; conditions: Zymoseptoria tritici; for pest or weed control at 100 ppm: rate 100 ppm; for pest or weed control at 121.5 g/ha: rate 121.5 g/H
Method: Evaluation of Fungicidal Activity: Leaf Blotch of Wheat (Mycosphaerella graminicola; Anamorph: Septoria tritici; Bayer code […]) Technical grades of materials were dissolved in acetone, which were then mixed with nine volumes of water containing 110 ppm Triton X-100. The fungicide solutions were applied onto wheat seedlings using an automated booth sprayer to run-off. All sprayed plants were allowed to air dry prior to further handling. All fungicides were evaluated using the aforementioned method for their activity vs. all target diseases. Wheat leaf blotch and brown rust activity were also evaluated using track spray applications, in which case the fungicides were formulated as EC formulations, containing 0.1% Trycol 5941 in the spray solutions. Wheat plants (variety Yuma) were grown from seed in a greenhouse in 50% mineral soil/50% soil-less Metro mix until the first leaf was fully emerged, with 7-10 seedlings per pot. These plants were inoculated with an aqueous spore suspension of Septoria tritici either prior to or after fungicide treatments. After inoculation the plants were kept in 100% relative humidity (one day in a dark dew chamber followed by two to three days in a lighted dew chamber at 20° C.) to permit spores to germinate and infect the leaf. The plants were then transferred to a greenhouse set at 20° C. for disease to develop. When disease symptoms were fully expressed on the 1st leaves of untreated plants, infection levels were assessed on a scale of 0 to 100 percent disease severity. Percent disease control was calculated using the ratio of disease severity on treated plants relative to untreated plants.

[2] = tested on: Puccinia triticina; assay: Wheat Brown Rust fungicidal activity (PUCCRT); assay type: in vivo; conditions: Puccinia triticina; for pest or weed control at 100 ppm: rate 100 ppm; for pest or weed control at 121.5 g/ha: rate 121.5 g/H
Method: Technical grades of materials were dissolved in acetone, which were then mixed with nine volumes of water containing 110 ppm Triton X-100. The fungicide solutions were applied onto wheat seedlings using an automated booth sprayer to run-off. All sprayed plants were allowed to air dry prior to further handling. All fungicides were evaluated using the aforementioned method for their activity vs. all target diseases. Wheat leaf blotch and brown rust activity were also evaluated using track spray applications, in which case the fungicides were formulated as EC formulations, containing 0.1% Trycol 5941 in the spray solutions. Wheat plants (variety Yuma) were grown from seed in a greenhouse in 50% mineral soil/50% soil-less Metro mix until the first leaf was fully emerged, with 7-10 seedlings per pot. These plants were inoculated with an aqueous spore suspension of Septoria tritici either prior to or after fungicide treatments. After inoculation the plants were kept in 100% relative humidity (one day in a dark dew chamber followed by two to three days in a lighted dew chamber at 20° C.) to permit spores to germinate and infect the leaf. The plants were then transferred to a greenhouse set at 20° C. for disease to develop. When disease symptoms were fully expressed on the 1st leaves of untreated plants, infection levels were assessed on a scale of 0 to 100 percent disease severity. Percent disease control was calculated using the ratio of disease severity on treated plants relative to untreated plants. Evaluation of Fungicidal Activity: Wheat Brown Rust (Puccinia triticina; Synonym: Puccinia recondite f sp. tritici; Bayer code PUCCRT) Wheat plants (variety Yuma) were grown from seed in a greenhouse in 50% mineral soil/50% soil-less Metro mix until the first leaf was fully emerged, with 7-10 seedlings per pot. These plants were inoculated with an aqueous spore suspension of Puccinia triticina either prior to or after fungicide treatments. After inoculation the plants were kept in a dark dew room at 22° C. with 100% relative humidity overnight to permit spores to germinate and infect the leaf. The plants were then transferred to a greenhouse set at 24° C. for disease to develop. Fungicide formulation, application and disease assessment followed the procedures as described in the Example A.

[3] = 24 h, 1 Day Protectant, read-out: Disease control SEPTTR 1DP
[4] = 72 h, 3 Day Curative, read-out: Disease control SEPTTR 3DC
[5] = 24 h, 1 Day Protectant, read-out: Disease control PUCCRT 1DP
[6] = 72 h, 3 Day Curative, read-out: Disease control PUCCRT 3DC

SMILES	pest or weed control at 100 ppm [1, 3] [%]	pest or weed control at 121.5 g/ha [1, 3] [%]	pest or weed control at 100 ppm [1, 4] [%]	pest or weed control at 121.5 g/ha [1, 4] [%]	pest or weed control at 100 ppm [2, 5] [%]	pest or weed control at 121.5 g/ha [2, 5] [%]	pest or weed control at 100 ppm [2, 6] [%]	pest or weed control at 121.5 g/ha [2, 6] [%]
COc1ccnc(C(=O)N[C@H]2COC[C@H](Cc3cccc4ccccc34)[C@@H](OCC(C)C)[C@H](C)OC2=O)c1OCOC(C)=O [Compound F87]	80 to 100	80 to 100	80 to 100	80 to 100	80 to 100	80 to 100	80 to 100	0 to 80
COc1ccnc(C(=O)N[C@H]2COC[C@H](CCc3ccccc3)[C@@H](OC(=O)C3CC3)[C@H](C)OC2=O)c1OCOC(C)=O [Compound F92]	80 to 100	80 to 100	80 to 100	80 to 100	80 to 100	80 to 100	80 to 100	80 to 100
COc1ccnc(C(=O)N[C@H]2COC[C@H](Cc3ccc(F)cc3)[C@@H](OCCCC(F)(F)F)[C@H](C)OC2=O)c1OCOC(C)=O [Compound F93]	80 to 100	80 to 100	80 to 100	80 to 100	80 to 100	80 to 100	80 to 100	80 to 100
COc1ccnc(C(=O)N[C@H]2COC[C@H](Cc3ccc(F)cc3)[C@@H](OC3CCCC3)[C@H](C)OC2=O)c1OCOC(C)=O [Compound F94]	80 to 100	80 to 100	80 to 100	80 to 100	80 to 100	80 to 100	80 to 100	80 to 100
CCCCCO[C@@H]1[C@@H](Cc2ccc(F)cc2)COC[C@H](NC(=O)c2nccc(OC)c2OCOC(C)=O)C(=O)O[C@H]1C [Compound F95]	80 to 100	–	80 to 100	–	80 to 100	–	80 to 100	–
COc1ccnc(C(=O)N[C@H]2COC[C@H](Cc3ccc(C)cc3)[C@@H](OC(=O)C3CC3)[C@H](C)OC2=O)c1OCOC(C)=O [Compound F97]	80 to 100	80 to 100	0 to 80	80 to 100	80 to 100	80 to 100	80 to 100	80 to 100
COc1ccnc(C(=O)N[C@H]2COC[C@H](Cc3ccc(C(F)(F)F)cc3)[C@@H](OC(=O)C3CC3)[C@H](C)OC2=O)c1OCOC(C)=O [Compound F98]	80 to 100	80 to 100	80 to 100	0 to 80	80 to 100	80 to 100	80 to 100	0 to 80
COc1ccnc(C(=O)N[C@H]2COC[C@H](Cc3ccc(C(F)(F)F)cc3)[C@@H](OCC(C)C)[C@H](C)OC2=O)c1OCOC(C)=O [Compound F99]	80 to 100	80 to 100	80 to 100	80 to 100	80 to 100	80 to 100	80 to 100	0 to 80
COc1ccnc(C(=O)N[C@H]2COC[C@H](Cc3ccc(C(F)(F)F)cc3)[C@@H](OC3CCCC3)[C@H](C)OC2=O)c1OCOC(C)=O [Compound F100]	80 to 100	80 to 100	80 to 100	0 to 80	80 to 100	80 to 100	80 to 100	0 to 80
CCCO[C@@H]1[C@@H](Cc2ccc(C(F)(F)F)cc2)COC[C@H](NC(=O)c2nccc(OC)c2OCOC(C)=O)C(=O)O[C@H]1C [Compound F101]	80 to 100	–	80 to 100	–	80 to 100	–	80 to 100	–
COc1ccnc(C(=O)N[C@H]2COC[C@H](Cc3ccc(C(F)(F)F)cc3)[C@@H](OC(=O)C(C)C)[C@H](C)OC2=O)c1OCOC(C)=O [Compound F102]	80 to 100	–	80 to 100	–	80 to 100	–	80 to 100	–
CCCCCO[C@@H]1[C@@H](Cc2ccc(C(F)(F)F)cc2)COC[C@H](NC(=O)c2nccc(OC)c2OCOC(C)=O)C(=O)O[C@H]1C [Compound F103]	80 to 100	–	0 to 80	–	80 to 100	–	80 to 100	–
COc1ccnc(C(=O)N[C@H]2COC[C@H](CC(F)(F)F)[C@@H](OCC(C)C)[C@H](C)OC2=O)c1OCOC(C)=O [Compound F104]	80 to 100	80 to 100	80 to 100	80 to 100	80 to 100	80 to 100	80 to 100	80 to 100
COc1ccnc(C(=O)N[C@H]2COC[C@H](CC3CCCC3)[C@@H](OCC(C)C)[C@H](C)OC2=O)c1OCOC(C)=O [Compound F115]	80 to 100	80 to 100	80 to 100	80 to 100	80 to 100	80 to 100	80 to 100	80 to 100
CCCCCO[C@@H]1[C@@H](CC2CCCC2)COC[C@H](NC(=O)c2nccc(OC)c2OCOC(C)=O)C(=O)O[C@H]1C [Compound F116]	80 to 100	80 to 100	80 to 100	80 to 100	80 to 100	80 to 100	80 to 100	80 to 100
COc1ccnc(C(=O)N[C@H]2COC[C@H](CCc3ccccc3)[C@@H](OC(=O)C3CC3)[C@H](C)OC2=O)c1OCOC(=O)C(C)C [Compound F118]	80 to 100	80 to 100	80 to 100	80 to 100	80 to 100	80 to 100	80 to 100	80 to 100
CCCO[C@@H]1[C@@H](Cc2ccc(C(F)(F)F)cc2)COC[C@H](NC(=O)c2nccc(OC)c2OCOC(=O)COCC)C(=O)O[C@H]1C [Compound F120, ((4-methoxy-2-(((3S,7S,8R,9S)-9-methyl-2-oxo-8-propoxy-7-(4-(trifluoromethyl)benzyl)-1,5-dioxonan-3-yl)carbamoyl)pyridin-3-yl)oxy)methyl 2-ethoxyacetate]	80 to 100	–	80 to 100	–	80 to 100	–	0 to 80	–
